The source of these data is patent publication US20120115724A1, “METHOD OF CONTROLLING UNDESIRED VEGETATION” (SYNGENTA CROP PROTECTION LLC, priority 2009, published 2012).

Assay in all cases: Post-emergence crop and weed test (Example 15)
Format in all cases: in vivo

For test [1], the system named is ABUTH Abutilon theophrasti. To be noted: 360 h, 8 g/ha, after 15 days, read-out: Percentage damage ABUTH. The procedure: (§1) Seeds of crop and representative weed species were sown in standard soil in pots. After cultivation for 14 days under controlled conditions in a glasshouse (at 22/16° C., day/night; 16 hours light; 65% humidity), the plants were sprayed. The spray solution was prepared by dissolving the technical active ingredient in acetone containing 10.56 wt % Emulsogen EL, 42.22 wt % N-methylpyrrolidone and 2.22 wt % DPG-monoethyl ether to give a 5% stock solution. This was then diluted with water containing 0.2% (v/v) of the adjuvant X-77 to give the desired treatment concentration.
(§2) The test plants were then grown on under controlled conditions in a glasshouse (at 22/16° C., day/night; 16 hours light; 65% humidity) and watered twice daily. After 15 days the test was evaluated (100 =total damage to plant; 0 =no damage to plant).

Test [2] relates to AMARE Amaranthus retroflexus. To be noted: 360 h, 8 g/ha, after 15 days, read-out: Percentage damage AMARE. The procedure:
as §1, §2

In the next test the test system is CHEAL Chenopodium album. The following applies: 360 h, 8 g/ha, after 15 days, read-out: Percentage damage CHEAL. The protocol:
as §1, §2

The test system of test [3] is EPHHL Euphorbia heterophylla. To be noted: 360 h, 8 g/ha, after 15 days, read-out: Percentage damage EPHHL. The procedure:
as §1, §2

Another test deals with GLXMA Soybean. The following applies: Glycine max, 360 h, 8 g/ha, after 15 days, read-out: Percentage damage GLXMA. The protocol: as §1, §2
In the next test the test system is IPOHE Ipomoea hederacea. To be noted: 360 h, 8 g/ha, after 15 days, read-out: Percentage damage IPOHE. The protocol:
as §1, §2

A further test deals with KCHSC Kochia scoparia. To be noted: Bassia scoparia, 360 h, 8 g/ha, after 15 days, read-out: Percentage damage KCHSC. The procedure:
as §1, §2

Test [4] concerns POLCO Polygonum convolvulus. To be noted: Fallopia convolvulus, 360 h, 8 g/ha, after 15 days, read-out: Percentage damage POLCO. The protocol:
as §1, §2

Another test has as its system SIDSP Sida spinosa. To be noted: 360 h, 8 g/ha, after 15 days, read-out: Percentage damage SIDSP. The procedure: as §1, §2
Another test has as its system SINAR Sinapis arvensis. To be noted: Mutarda arvensis, 360 h, 8 g/ha, after 15 days, read-out: Percentage damage SINAR. The procedure:
as §1, §2

A further test has as its system VERPE Veronica persica. The following applies: 360 h, 8 g/ha, after 15 days, read-out: Percentage damage VERPE. The protocol: as §1, §2
In test [5] the test system is XANST Xanthium strumarium. The following applies: 360 h, 8 g/ha, after 15 days, read-out: Percentage damage XANST. The protocol:
as §1, §2

With `C=Cc1c(N)nc(C2CC2)nc1C(=O)OC` [Ref. Ex. C, 4-Amino-2-cyclopropyl-5-ethenyl-6-methoxycarbonyl-pyrimidine, reference compound], the pest or weed control at 8 g/ha in [1] was 30%; in test [2], 10%; in the test with CHEAL Chenopodium album it was 60%; in test [3], 30%; with IPOHE Ipomoea hederacea, 70%; in the test on KCHSC Kochia scoparia, 0%. Moreover, the pest or weed control at 8 g/ha in [4] stood at 0%; in the test with SIDSP Sida spinosa, 40%; in the test on SINAR Sinapis arvensis, 0%; in the test with VERPE Veronica persica, 50%; in [5], 0%. In addition, the plant injury at 8 g/ha in the test on GLXMA Soybean is 70%.
